Results as given in patent publication US12077503B2, “Substituted cyclic amides and their use as herbicides” (FMC CORPORATION, priority 2015, dated 2024).

Columns and labels:
Format in all cases: in vivo
[1] = test system: blackgrass (Alopecurus myosuroides); assay: Test A postemergence
From the text: (§1) Seeds of plant species selected from barnyardgrass (Echinochloa crus-galli), Kochia (Kochia scoparia), ragweed (common ragweed, Ambrosia elatior), ryegrass, Italian (Italian ryegrass, Lolium multiflorum), crabgrass, large (Digitaria sanguinalis), giant foxtail (Setaria faberii), green foxtail (Setaria viridis), morningglory (Ipomoea spp.), pigweed (Amaranthus retroflexus), velvetleaf (Abutilon theophrasti), wheat (Triticum aestivum), and corn (Zea mays) were planted into a blend of loam soil and sand and treated preemergence with a directed soil spray using test chemicals formulated in anon-phytotoxic solvent mixture which included a surfactant.
(§2) At the same time, plants selected from these crop and weed species and also blackgrass (Alopecurus myosuroides), and Galium (catchweed bedstraw, Galium aparine) were planted in pots containing the same blend of loam soil and sand and treated with postemergence applications of test chemicals formulated in the same manner. Plants ranged in height from 2 to 10 cm and were in the one- to two-leaf stage for the postemergence treatment. Treated plants and untreated controls were maintained in a greenhouse for approximately 10 d, after which time all treated plants were compared to untreated controls and visually evaluated for injury. Plant response ratings, summarized in Table A, are based on a 0 to 100 scale where 0 is no effect and 100 is complete control. A dash (-) response means no test result.

[2] = test system: giant foxtail (Setaria faberii); assay: Test A postemergence
From the text: as §1, §2

[3] = test system: ryegrass, Italian (Italian ryegrass, Lolium multiflorum); assay: Test A postemergence
From the text: as §1, §2

[4] = test system: Galium (catchweed bedstraw, Galium aparine); assay: Test A postemergence
From the text: as §1, §2

[5] = test system: pigweed (Amaranthus retroflexus); assay: Test A postemergence
From the text: as §1, §2

[6] = test system: barnyardgrass (Echinochloa crus-galli); assay: Test A postemergence
From the text: as §1, §2

Kochia (Kochia scoparia) [7] = assay: Test A postemergence
From the text: as §1, §2

[8] = test system: wheat (Triticum aestivum); assay: Test A postemergence
From the text: as §1, §2

corn (Zea mays) = assay: Test A postemergence
From the text: as §1, §2

[9] = test system: ragweed (common ragweed, Ambrosia elatior); assay: Test A postemergence
From the text: as §1, §2

[10] = test system: giant foxtail (Setaria faberii); assay: Test A preemergence
Outline: (§3)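 Seeded soil received test chemicals as a preemergence directed spray, and seedlings at one to two leaves, 2–10 cm tall, received them postemergence, in a non-phytotoxic, surfactant-containing solvent mixture. Pots were held in a greenhouse for approximately 10 d, then rated for injury from 0, no effect, to 100, complete control.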

[11] = test system: ryegrass, Italian (Italian ryegrass, Lolium multiflorum); assay: Test A preemergence
Outline: as §3

[12] = test system: pigweed (Amaranthus retroflexus); assay: Test A preemergence
[13] = test system: barnyardgrass (Echinochloa crus-galli); assay: Test A preemergence
Outline: as §3

Kochia (Kochia scoparia) [14] = assay: Test A preemergence
Outline: as §3

[15] = test system: ragweed (common ragweed, Ambrosia elatior); assay: Test A preemergence
Outline: as §3

[16] = test system: sedge, umbrella (small-flower umbrella sedge, Cyperus difformis); assay: Test B flooded paddy test; conditions: Flood, 250 g ai/ha; 0 to 100 scale where 0 is no effect and 100 is complete control; 13 to 15 d
Outline: (§4)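 Evaluation by eye, against controls, occurred 13–15 d post-treatment in a greenhouse, using a 0 (no effect) to 100 (complete control) scale. Application was into the paddy water, 3 cm deep over the soil, on 2-leaf plants.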

[17] = test system: ducksalad (Heteranthera limosa); assay: Test B flooded paddy test; conditions: Flood, 250 g ai/ha; 0 to 100 scale where 0 is no effect and 100 is complete control; 13 to 15 d
Outline: as §4

[18] = test system: barnyardgrass (Echinochloa crus-galli); assay: Test B flooded paddy test; conditions: Flood, 250 g ai/ha; 0 to 100 scale where 0 is no effect and 100 is complete control; 13 to 15 d
Outline: as §4

rice (Oryra sativa) = assay: Test B flooded paddy test; conditions: Flood, 250 g ai/ha; 0 to 100 scale where 0 is no effect and 100 is complete control; 13 to 15 d
Outline: as §4

[19] = 125 g ai/ha, postemergence, visual rating after approx. 10 d, 0 to 100 scale (0 no effect, 100 complete control)
[20] = Postemergence, 500 g ai/ha, 0 to 100 scale where 0 is no effect and 100 is complete control
[21] = 125 g ai/ha, Preemergence, visual injury after approximately 10 d, 0 to 100 scale where 0 is no effect and 100 is complete control
[22] = Preemergence, 500 g ai/ha, visual injury approx. 10 d
[23] = 500 g ai/ha, postemergence, visual injury, 0 to 100 scale (0 no effect, 100 complete control), approx. 10 d
[24] = 500 g ai/ha, preemergence, 0 to 100 scale, 0 = no effect, 100 = complete control

Compound | Plant response rating, Blackgrass [1, 19] | Plant response rating, Foxtail, Giant [2, 19] | Plant response rating, Ryegrass, Italian [3, 19] | Plant response rating, Galium [4, 19] | Plant response rating, Pigweed [5, 19] | Plant response rating, Barnyardgrass [6, 19] | Plant response rating, Kochia (Kochia (Kochia scoparia) [7]; [19]) | Plant response rating, Wheat [8, 19] | Plant response rating, Corn (corn (Zea mays); [19]) | Plant response rating, Ragweed [9, 19] | Plant response rating, Foxtail, Giant [10, 21] | Plant response rating, Ryegrass, Italian [11, 21] | Plant response rating, Pigweed [12, 21] | Plant response rating, Barnyardgrass [13, 21] | Plant response rating, Kochia (Kochia (Kochia scoparia) [14]; [21]) | Plant response rating, Ragweed [15, 21] | Plant response rating, Sedge, Umbrella [16] | Plant response rating, Ducksalad [17] | Plant response rating, Barnyardgrass [18] | Plant response rating, Rice (rice (Oryra sativa)) | also measured
O=C1NCC(c2cc(F)c(F)cc2F)C1C(=O)Nc1cccc(F)c1F (racemic) [Compound 550] | 0 | 80 | 0 | 0 | 0 | 80 | 0 | 0 | 0 | 0 | 90 | 0 | 0 | 40 | 0 | 0 | 0 | 95 | 55 | 50 | Plant response rating, Blackgrass [1, 20]: 50; Plant response rating, Foxtail, Giant [2, 20]: 90; Plant response rating, Ryegrass, Italian [3, 20]: 20; Plant response rating, Galium [4, 20]: 60; Plant response rating, Pigweed [5, 20]: 0; Plant response rating, Barnyardgrass [6, 20]: 90; Plant response rating, Kochia (Kochia (Kochia scoparia) [7]; [20]): 50; Plant response rating, Wheat [8, 20]: 30; Plant response rating, Corn (corn (Zea mays); [20]): 20; Plant response rating, Ragweed [9, 20]: 0; Foxtail, Giant plant response rating (0 to 100 scale, 0 is no effect, 100 is complete control) [10, 22]: 90; Ryegrass, Italian plant response rating (0 to 100 scale, 0 is no effect, 100 is complete control) [11, 22]: 20; Pigweed plant response rating (0 to 100 scale, 0 is no effect, 100 is complete control) [12, 22]: 0; Barnyardgrass plant response rating (0 to 100 scale, 0 is no effect, 100 is complete control) [13, 22]: 90; Kochia plant response rating (0 to 100 scale, 0 is no effect, 100 is complete control) (Kochia (Kochia scoparia) [14]; [22]): 40; Ragweed plant response rating (0 to 100 scale, 0 is no effect, 100 is complete control) [15, 22]: 0
Cc1cc(C2CNC(=O)C2C(=O)Nc2cccc(F)c2F)cs1 (racemic) [Compound 656] | 0 | 20 | 0 | 0 | 0 | 90 | 20 | 0 | 0 | 0 | 90 | 30 | 30 | 90 | 60 | 20 | 0 | 100 | 50 | 0 | Plant response rating, Blackgrass [1, 23]: 30; Plant response rating, Foxtail, Giant [2, 23]: 60; Plant response rating, Ryegrass, Italian [3, 23]: 0; Plant response rating, Galium [4, 23]: 60; Plant response rating, Pigweed [5, 23]: 0; Plant response rating, Barnyardgrass [6, 23]: 90; Plant response rating, Kochia (Kochia (Kochia scoparia) [7]; [23]): 30; Plant response rating, Wheat [8, 23]: 20; Plant response rating, Corn (corn (Zea mays); [23]): 20; Plant response rating, Ragweed [9, 23]: 0; Plant response rating, Foxtail, Giant [10, 24]: 90; Plant response rating, Ryegrass, Italian [11, 24]: 60; Plant response rating, Pigweed [12, 24]: 40; Plant response rating, Barnyardgrass [13, 24]: 90; Plant response rating, Kochia (Kochia (Kochia scoparia) [14]; [24]): 50; Plant response rating, Ragweed [15, 24]: 60
CCc1cc(C2CNC(=O)C2C(=O)Nc2ccccc2F)cs1 (racemic) [Compound 657] | 0 | 0 | 0 | 0 | 0 | 90 | 0 | 0 | 0 | 0 | 90 | 20 | 20 | 90 | 20 | 20 | 0 | 100 | 40 | 0 | Plant response rating, Blackgrass [1, 23]: 30; Plant response rating, Foxtail, Giant [2, 23]: 60; Plant response rating, Ryegrass, Italian [3, 23]: 0; Plant response rating, Galium [4, 23]: 30; Plant response rating, Pigweed [5, 23]: 0; Plant response rating, Barnyardgrass [6, 23]: 90; Plant response rating, Kochia (Kochia (Kochia scoparia) [7]; [23]): 0; Plant response rating, Wheat [8, 23]: 0; Plant response rating, Corn (corn (Zea mays); [23]): 0; Plant response rating, Ragweed [9, 23]: 0; Plant response rating, Foxtail, Giant [10, 24]: 90; Plant response rating, Ryegrass, Italian [11, 24]: 30; Plant response rating, Pigweed [12, 24]: 30; Plant response rating, Barnyardgrass [13, 24]: 90; Plant response rating, Kochia (Kochia (Kochia scoparia) [14]; [24]): 40; Plant response rating, Ragweed [15, 24]: 20
CCc1cc(C2CNC(=O)C2C(=O)Nc2cccc(F)c2F)cs1 (racemic) [Compound 658] | 40 | 0 | 30 | 60 | 0 | 70 | 0 | 0 | 0 | 0 | 90 | 0 | 0 | 90 | 0 | 50 | 0 | 100 | 50 | 0 | Plant response rating, Blackgrass [1, 23]: 70; Plant response rating, Foxtail, Giant [2, 23]: 60; Plant response rating, Ryegrass, Italian [3, 23]: 60; Plant response rating, Galium [4, 23]: 60; Plant response rating, Pigweed [5, 23]: 0; Plant response rating, Barnyardgrass [6, 23]: 90; Plant response rating, Kochia (Kochia (Kochia scoparia) [7]; [23]): 30; Plant response rating, Wheat [8, 23]: 30; Plant response rating, Corn (corn (Zea mays); [23]): 30; Plant response rating, Ragweed [9, 23]: 40; Plant response rating, Foxtail, Giant [10, 24]: 90; Plant response rating, Ryegrass, Italian [11, 24]: 70; Plant response rating, Pigweed [12, 24]: 50; Plant response rating, Barnyardgrass [13, 24]: 90; Plant response rating, Kochia (Kochia (Kochia scoparia) [14]; [24]): 30; Plant response rating, Ragweed [15, 24]: 70
